Assay results: ChEMBL document CHEMBL5550135, “Targeting the cysteine biosynthesis pathway in microorganisms: Mechanism, structure, and drug discovery” (Eur J Med Chem, 2024)
Converted amounts (≈) assume the structure as drawn.

Experiments:
Escherichia coli = assay: Antibacterial activity against Escherichia coli assessed as reduction in bacterial growth by broth microdilution method; format: functional
[1] = test system: Mycobacterium tuberculosis; assay: Antimycobacterial activity against Mycobacterium tuberculosis H37Rv assessed as reduction in bacterial growth incubated for 7 days by resazurin based assay; format: functional; conditions: 168 h, time 7 day
[2] = Binding affinity to Salmonella Typhimurium ATCC 14028 O-acetylserine sulfhydrylase A assessed as dissociation constant; design: species or system Salmonella enterica subsp. enterica serovar Typhimurium
[3] = Binding affinity to Salmonella Typhimurium ATCC 14028 O-acetylserine sulfhydrylase B assessed as dissociation constant; design: species or system Salmonella enterica subsp. enterica serovar Typhimurium
[4] = Inhibition of Salmonella enterica Serine acetyltransferase by spectrophotometric analysis
[5] = Inhibition of Methicillin-resistant Staphylococcus aureus ATCC 33591 Serine acetyltransferase
Staphylococcus aureus = assay: Antibacterial activity against methicillin-resistant Staphylococcus aureus ATCC 33591 assessed as reduction in bacterial growth incubated for 18 hrs by broth microdilution method; format: functional
[6] = Inhibition of Entamoeba histolytica O-acetylserine sulfhydrylase
[7] = target: O-acetylserine sulfhydrylase (Mycobacterium tuberculosis, UniProt P9WP55); assay: Inhibition of Mycobacterium tuberculosis ATCC 25618 Cysteine synthase A
[8] = Inhibition of Klebsiella pneumoniae Serine acetyltransferase

With `O=C(CSc1c[nH]nn1)Nc1ccccc1F` the MIC (Escherichia coli) was 1.6 µg/mL (≈ 6.34 µM).

`Cc1ccc(S(=O)(=O)n2nc(-c3ccccc3)c3c(N)ncnc32)cc1` showed an MIC (Escherichia coli) of 0.57 µg/mL (≈ 1.56 µM).

With `O=C1N=C2C(C(=O)N=C3SC([N+](=O)[O-])=CN32)C(c2ccccc2C(F)(F)F)N1` (stereo unspecified) the MIC [1] was 7.6 µM (≈ 3.13 µg/mL).

Work on `Cc1ccc(C[C@@]2(C(=O)O)C[C@H]2c2ccccc2)cc1` yielded a Kd [2] of 20 nM and a Kd [3] of 490 nM.

In the case of `Cc1ccc(Nc2nc(-c3cc(C(=O)O)no3)cs2)cc1`, the IC50 [4] is reported as 110000 nM.

`CC1=C2[C@@H](OC1=O)C(=O)[C@H]1[C@]3(C)CCCC(C)(C)[C@H]3CC[C@@]1(O)[C@H]2O` showed an IC50 [5] of 71800 nM and an MIC (Staphylococcus aureus) of 12.5 µg/mL (≈ 35.9 µM).

For `CC1(C)CCC[C@]2(C)[C@@H]1CC[C@]1(O)[C@H](O)C3=C(CO)C(=O)OC3=C[C@@H]21`, the IC50 [5] was 71800 nM and the MIC (Staphylococcus aureus) was 25 µg/mL (≈ 71.7 µM).

`C[C@@H]1O[C@@H](O[C@@H]2C[C@H](c3ccc4c(c3O)C(=O)C3=C(C4=O)[C@@]4(O[C@H]5CC[C@H](O)[C@H](C)O5)C(=O)C[C@](C)(O)C[C@@]4(O)C=C3)O[C@H](C)[C@H]2O)CC[C@@H]1O[C@H]1C[C@@H](O)[C@H](O)[C@@H](C)O1` gave an IC50 [6] of 310 nM and an IC50 [7] of 630 nM.

In the case of `Cc1ccc(C[C@@]2(C(=O)O)C[C@H]2c2cccc(-c3cc(O)cc(F)c3)c2)cc1`, the Kd [2] is reported as 30 nM and the Kd [3] is reported as 610 nM.

Compound `Cc1cc(C)cc(Nc2nc(-c3cc(C(=O)O)no3)co2)c1` has an IC50 [4] of 4240 nM.

For `O=c1c(O)c(-c2ccc(O)c(O)c2)oc2cc(O)cc(O)c12` [QUERCETIN], the IC50 [8] was 3700 nM.
